The assay concerns the target T1, human NaV1.8 (Homo sapiens, UniProt Q9Y5Y9).
T1 construct: expressed in transfected cells; host or cells: HEK
As to the kind of experiment: Electrophysiology: voltage-clamp recordings (whole-cell automated patch clamp, Qube384). As to conditions: HEK-NaV1.8 with b3 recombinant cell line, ambient room temperature, read-out: Potency category (human NaV1.8 IC50). The assay is classed as cell-based. On the procedure:
The following NaV1.8 recombinant cell line was used for recordings: HEK-NaV1.8 (NM_006514.1) with b3 (NM_018400.3).
Sodium currents were measured using the patch clamp technique in the whole-cell configuration using the Qube384 (Sophion A/S, Copenhagen, Denmark) automated voltage clamp platform. "Multi hole" plates were used for the cell line expressing NaV1.8 while "single hole" plates were used for the recombinant cell lines expressing the other subtypes. Appropriate filters (for minimum seal resistance and minimum current size) and series resistance compensation (for high quality sodium channel recordings) were applied. Data was collected at ambient room temperature.
The recording […] solution contained (in mM): NaCl 145 mM, KCl 4 mM, CaCl2 2 mM, MgCl2 1 mM, HEPES 10 mM, Glucose 10 mM, pH 7.4 (NaOH). The […] recording solution contained (in mM): CsF 120 mM, CsCl 20 mM, NaCl 10 mM, EGTA 10 mM, HEPES 10 mM, pH 7.2 (CsOH). Currents were recorded at 25 kHz sampling frequency and filtered at 5 kHz. Series resistance compensation was applied at 65%.
Vehicle (VEH) is the control condition where cells are exposed to 0.3 % DMSO without compound. All runs include VEH controls being exposed to the same voltage protocols to assess non-compound related phenomena such as run down and then used to isolate compound dependent effects on currents.
To check for state-dependence inhibition, the following voltage-sequence was applied every 20 seconds: From a resting membrane potential of-120 mV, the first test pulse (P1; 20 ms to -10 mV) was applied to check for channels in the Resting State followed by a brief recovery (20 ms to -120 mV), then holding the membrane voltage to V1/2 (4 seconds at voltage to obtain half the channel at Rest and half Inactivated) with a subsequent second test pulse (P2; 20 ms to -10 mV) to check for channels in the Inactivated State, followed by another brief recovery (20 ms to -120 mV) and a final third test pulse (P3; 20 ms to -10 mV) to check for recovered channels.
To check for frequency-dependent inhibition, a 10 Hz protocol and a 20 Hz protocol were applied; namely,
From a resting membrane potential of -120 mV, 40-pulses (10 ms to -10 mV) was applied at 10 Hz (at 100 ms between pulses) and then at 20 Hz (at 50 ms between pulses).
Each parameter was recorded (P1, P2, P3, P40 from 10Hz and P40 from 20Hz) during a control period (lasting ~ 5 minutes) when establishing the baseline and during compound period (lasting ~ 12 minutes) when test compound (or vehicle) was applied. For each parameter, the value at the end of the compound period was normalized to the vehicle baseline; as follows Normalized Inhibition (NormCPD) = (CPD Valueend CPD period)/(VEH Valueend Control Period) [formula]
To adjust for any variance in the Na^+ current signal during the compound period (owing to cumulative inactivation independent of compound or shifts in biophysics over time), a dedicated segment of the recording wells in each 384 plate were dedicated to having only vehicle exposure. These vehicle-only recordings were used to correct for any apparent "run-up" or "run-down" in the experiment. Normalized Inhibition (NormVEH) = (VEH Valueend CPD period)/(VEH Valueend Control Period) [formula]
The adjusted inhibition was calculated as follows: % Inhibitioncorrected = 100 × (NormCPD −NormVEH)/(100−NormVEH) [formula]
Percent inhibition was determined and IC50 values were calculated using a 4 parameter logistic model within XLFit Software (IDBS, Boston MA): % Inhibitioncorrected = A + ((B−A))/((1 + (((x)/(C)))^D) [formula] where A and B are the maximal and minimum inhibition respectively, C is the IC50 concentration and D is the (Hill) slope.

Structures are written as SMILES.

T1 sequence (Q9Y5Y9 whole entry): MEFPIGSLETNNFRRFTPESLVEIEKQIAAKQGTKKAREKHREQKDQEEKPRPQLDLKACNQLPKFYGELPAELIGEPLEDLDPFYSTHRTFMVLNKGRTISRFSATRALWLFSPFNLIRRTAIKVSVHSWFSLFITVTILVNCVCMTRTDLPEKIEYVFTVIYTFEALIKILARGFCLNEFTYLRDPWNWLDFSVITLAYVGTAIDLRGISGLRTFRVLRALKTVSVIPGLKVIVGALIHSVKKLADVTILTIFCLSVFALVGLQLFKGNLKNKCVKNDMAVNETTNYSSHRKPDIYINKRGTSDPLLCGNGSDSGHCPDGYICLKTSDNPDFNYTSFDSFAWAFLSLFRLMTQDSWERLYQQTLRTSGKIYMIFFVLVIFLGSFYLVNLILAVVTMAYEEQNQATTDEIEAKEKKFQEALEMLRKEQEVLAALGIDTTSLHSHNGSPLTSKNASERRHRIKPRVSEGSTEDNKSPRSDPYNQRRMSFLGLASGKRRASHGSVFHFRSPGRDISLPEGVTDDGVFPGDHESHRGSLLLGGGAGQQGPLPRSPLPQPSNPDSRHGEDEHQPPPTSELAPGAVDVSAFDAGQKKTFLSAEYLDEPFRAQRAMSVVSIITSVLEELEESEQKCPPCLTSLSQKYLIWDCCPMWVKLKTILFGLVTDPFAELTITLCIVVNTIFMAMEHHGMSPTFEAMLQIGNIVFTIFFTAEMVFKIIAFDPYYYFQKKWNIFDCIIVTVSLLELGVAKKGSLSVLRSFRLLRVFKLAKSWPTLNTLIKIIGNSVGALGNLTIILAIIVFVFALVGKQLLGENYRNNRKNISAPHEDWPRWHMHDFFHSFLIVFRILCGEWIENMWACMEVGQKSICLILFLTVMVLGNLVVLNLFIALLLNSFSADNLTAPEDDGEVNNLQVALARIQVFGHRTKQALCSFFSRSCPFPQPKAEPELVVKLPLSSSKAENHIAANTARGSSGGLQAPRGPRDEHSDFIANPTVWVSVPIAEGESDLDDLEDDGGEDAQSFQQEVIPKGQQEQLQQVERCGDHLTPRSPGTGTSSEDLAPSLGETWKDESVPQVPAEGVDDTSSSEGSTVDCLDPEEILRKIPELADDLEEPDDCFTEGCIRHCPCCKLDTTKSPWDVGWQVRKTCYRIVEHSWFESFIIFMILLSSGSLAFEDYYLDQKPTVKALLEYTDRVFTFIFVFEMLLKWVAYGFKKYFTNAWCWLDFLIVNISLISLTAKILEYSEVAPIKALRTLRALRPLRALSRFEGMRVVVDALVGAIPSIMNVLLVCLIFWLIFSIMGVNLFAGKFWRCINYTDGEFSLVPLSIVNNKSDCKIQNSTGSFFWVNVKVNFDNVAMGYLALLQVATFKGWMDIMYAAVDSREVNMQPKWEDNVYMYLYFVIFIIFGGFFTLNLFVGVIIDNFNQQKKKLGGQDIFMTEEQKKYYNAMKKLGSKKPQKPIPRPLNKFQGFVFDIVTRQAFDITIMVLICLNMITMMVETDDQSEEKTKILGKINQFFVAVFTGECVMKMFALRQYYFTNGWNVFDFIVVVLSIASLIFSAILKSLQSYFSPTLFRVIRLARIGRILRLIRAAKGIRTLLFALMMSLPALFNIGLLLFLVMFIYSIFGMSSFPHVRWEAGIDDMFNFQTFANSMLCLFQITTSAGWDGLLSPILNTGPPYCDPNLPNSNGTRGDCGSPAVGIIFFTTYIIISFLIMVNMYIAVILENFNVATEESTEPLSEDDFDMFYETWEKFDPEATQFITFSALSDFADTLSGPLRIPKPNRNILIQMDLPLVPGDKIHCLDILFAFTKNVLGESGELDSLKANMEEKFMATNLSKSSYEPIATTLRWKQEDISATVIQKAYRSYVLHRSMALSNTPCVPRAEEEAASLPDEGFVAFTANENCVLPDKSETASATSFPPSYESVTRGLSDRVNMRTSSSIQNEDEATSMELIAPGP
T1 sequence (Q9NY72 23-215 partner): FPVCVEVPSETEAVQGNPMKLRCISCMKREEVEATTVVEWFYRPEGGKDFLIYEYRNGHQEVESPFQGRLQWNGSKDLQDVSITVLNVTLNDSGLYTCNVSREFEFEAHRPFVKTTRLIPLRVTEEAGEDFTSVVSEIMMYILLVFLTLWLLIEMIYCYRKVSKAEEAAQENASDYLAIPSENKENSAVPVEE

For the molecule `CS(=O)(=O)c1cccc(NC(=O)c2c3cccc(C(F)(F)F)c3nn2CC2CCCCC2)c1` [SC-44, 2-(cyclohexylmethyl)-N-(3-methylsulfonylphenyl)-7-(trifluoromethyl)indazole-3-carboxamide], the IC50 is at most 100 nM.

With `Cc1cccc2c(C(=O)Nc3cccc(S(C)(=O)=O)c3)n(CC3CCCCC3)nc12` [SC-45, 2-(cyclohexylmethyl)-7-methyl-N-(3-methylsulfonylphenyl)indazole-3-carboxamide], the IC50 is at most 100 nM.

As for `Cc1ccc2nn(CC3CCCCC3)c(C(=O)Nc3cccc(S(C)(=O)=O)c3)c2c1` [SC-46, 2-(cyclohexylmethyl)-5-methyl-N-(3-methylsulfonylphenyl)indazole-3-carboxamide], the IC50 lay in the range of 100 to 1000 nM.

For `CS(=O)(=O)c1cccc(NC(=O)c2c3c(F)cccc3nn2CC2CCCCC2)c1` [SC-47, 2-(cyclohexylmethyl)-4-fluoro-N-(3-methylsulfonylphenyl)indazole-3-carboxamide], the 50% inhibitory concentration (IC50) is at most 100 nM.

Take `Cc1ccc2nn(CC3CCCCC3)c(C(=O)Nc3cc[nH]c(=O)c3)c2c1` [SC-48, 2-(cyclohexylmethyl)-5-methyl-N-(2-oxo-1,2-dihydropyridin-4-yl)-2H-indazole-3-carboxamide]: the half-maximal inhibitory concentration (IC50) was in the range of 1000 to 10000 nM.

As to `O=C(Nc1ccnc(O)c1)c1c2c(F)cccc2nn1CC1CCCCC1` [SC-49, 2-(cyclohexylmethyl)-4-fluoro-N-(2-hydroxypyridin-4-yl)indazole-3-carboxamide], the half-maximal inhibitory concentration (IC50) was 100 to 1000 nM.

As for `O=C(Nc1ccnc(O)c1)c1c2ccccc2nn1CC1CCOC1` (stereo not drawn) [SC-50, N-(2-hydroxypyridin-4-yl)-2-(oxolan-3-ylmethyl)indazole-3-carboxamide], the IC50 was 1000 to 10000 nM.

Regarding `O=C(Nc1ccnc(O)c1)c1c2ccccc2nn1CC1CCCCO1` (stereo not drawn) [SC-53, N-(2-hydroxypyridin-4-yl)-2-(oxan-2-ylmethyl)indazole-3-carboxamide], the IC50 lay in the range of 1000 to 10000 nM.

Consider `CS(=O)(=O)c1cccc(NC(=O)c2c3ccccc3nn2CC2CCOC2)c1` (stereo not drawn) [SC-56, N-(3-methylsulfonylphenyl)-2-(oxolan-3-ylmethyl)indazole-3-carboxamide], for which the IC50 is 1000 to 10000 nM.

As to `CS(=O)(=O)c1cccc(NC(=O)c2c3ccccc3nn2CC2CCCCO2)c1` (stereo not drawn) [SC-58, N-(3-methylsulfonylphenyl)-2-(oxan-2-ylmethyl)indazole-3-carboxamide], the concentration for half-maximal inhibition (IC50) lay within 100 to 1000 nM.

Take `CS(=O)(=O)c1cccc(NC(=O)c2c3ccc(F)cc3nn2CC2CCOCC2)c1` [SC-60, 6-fluoro-N-(3-methylsulfonylphenyl)-2-(oxan-4-ylmethyl)indazole-3-carboxamide]: the 50% inhibitory concentration (IC50) lay in the range of 100 to 1000 nM.

In the case of `CS(=O)(=O)c1cccc(NC(=O)c2c3ccc(F)cc3nn2CCC2CCCC2)c1` [SC-61, 2-(2-cyclopentylethyl)-6-fluoro-N-(3-methylsulfonylphenyl)indazole-3-carboxamide], the 50% inhibitory concentration (IC50) was 100 to 1000 nM.

For the molecule `CS(=O)(=O)c1cccc(NC(=O)c2c3ccc(F)cc3nn2CC2CC(F)(F)C2)c1` [SC-62, 2-[(3,3-difluorocyclobutyl)methyl]-6-fluoro-N-(3-methylsulfonylphenyl)indazole-3-carboxamide], the half-maximal inhibitory concentration (IC50) fell in the range of 100 to 1000 nM.

`CS(=O)(=O)c1cccc(NC(=O)c2c3ccccc3nn2CC2CCCC2)c1` [SC-67, 2-(cyclopentylmethyl)-7V-(3-methylsulfonylphenyl)indazole-3-carboxamide]: the 50% inhibitory concentration (IC50) was 100 to 1000 nM.

For `CC1(C)CC(Cn2nc3cc(F)ccc3c2C(=O)Nc2cccc(S(C)(=O)=O)c2)C1` [SC-68, 2-[(3,3-dimethylcyclobutyl)methyl]-6-fluoro-N-(3-methylsulfonylphenyl)indazole-3-carboxamide], the half-maximal inhibitory concentration (IC50) was at most 100 nM.

For `CS(=O)(=O)c1cccc(NC(=O)c2c3ccc(F)cc3nn2CC2CCC3(CC2)CC3)c1` [SC-70, 6-fluoro-N-(3-methylsulfonylphenyl)-2-(spiro[2.5]octan-6-ylmethyl)indazole-3-carboxamide], the half-inhibitory concentration (IC50) fell in the range of 1000 to 10000 nM.

Turning to `O=C(Nc1ccnc(O)c1)c1c2ccc(F)cc2nn1CC1CCCCO1` (stereo not drawn) [SC-71, 6-fluoro-N-(2-hydroxypyridin-4-yl)-2-[[oxan-2-yl]methyl]indazole-3-carboxamide], the IC50 was 1000 to 10000 nM.

On to `O=C(Nc1ccnc(O)c1)c1c2ccccc2nn1CC1CCCC1` [SC-73, 2-(cyclopentylmethyl)-N-(2-hydroxypyridin-4-yl)indazole-3-carboxamide], for which the half-inhibitory concentration (IC50) is 100 to 1000 nM.

Turning to `NC(=O)c1cccc(NC(=O)c2c3ccc(F)cc3nn2CC2CCC(F)(F)CC2)c1` [SC-76, N-(3-Carbamoylphenyl)-2-[(4,4-difluorocyclohexyl)methyl]-6-fluoro-2H-indazole-3-carboxamide], the IC50 was in the range of 100 to 1000 nM.

For `CS(=O)(=O)c1cc(NC(=O)c2c3ccccc3nn2CC2CCCCC2)ccc1F` [SC-77, 2-(cyclohexylmethyl)-N-(4-fluoro-3-methylsulfonylphenyl)indazole-3-carboxamide], the half-maximal inhibitory concentration (IC50) is at most 100 nM.

Regarding `Cc1cccc2c(C(=O)Nc3cccc(S(N)(=O)=O)c3)n(CC3CCC(F)(F)C3)nc12` (stereo not drawn) [SC-80, 2-((3,3-difluorocyclopentyl)methyl)-7-methyl-N-(3-sulfamoylphenyl)-2H-indazole-3-carboxamide], the concentration for half-maximal inhibition (IC50) is at most 100 nM.

Consider `NS(=O)(=O)c1cccc(NC(=O)c2c3cccc(F)c3nn2CC2CCCC(F)(F)C2)c1` (stereo not drawn) [SC-81, 2-((3,3-difluorocyclohexyl)methyl)-7-fluoro-N-(3-sulfamoylphenyl)-2H-indazole-3-carboxamide], for which the concentration for half-maximal inhibition (IC50) is at most 100 nM.

For the molecule `Cc1cccc2nn(CC3CCCCC3)c(C(=O)Nc3cccc(S(C)(=O)=O)c3)c12` [SC-83, 2-(cyclohexylmethyl)-4-methyl-N-(3-(methylsulfonyl)phenyl)-2H-indazole-3-carboxamide], the IC50 is at most 100 nM.

Consider `NS(=O)(=O)c1cccc(NC(=O)c2c3cccc(C4CC4)c3nn2CC2CCOCC2)c1` [SC-85, 7-cyclopropyl-N-(3-sulfamoylphenyl)-2-((tetrahydro-2H-pyran-4-yl)methyl)-2H-indazole-3-carboxamide], for which the half-maximal inhibitory concentration (IC50) is at most 100 nM.

With `NC(=O)c1cc(NC(=O)c2c3ccc(F)cc3nn2CC2CCCCC2)ccn1` [SC-86, N-(2-carbamoylpyridin-4-yl)-2-(cyclohexylmethyl)-6-fluoro-2H-indazole-3-carboxamide], the IC50 was at most 100 nM.

Consider `NS(=O)(=O)c1cc(NC(=O)c2c3ccc(F)cc3nn2CC2CCCCC2)ccn1` [SC-87, 2-(cyclohexylmethyl)-6-fluoro-N-(2-sulfamoylpyridin-4-yl)-2H-indazole-3-carboxamide], for which the IC50 was at most 100 nM.

As to `NS(=O)(=O)c1cc(NC(=O)c2c3cccc(C(F)F)c3nn2C[C@H]2CCCCO2)ccn1` [SC-89b], the IC50 was at most 100 nM.

The values above are taken from patent publication EP4385980A1, “INDAZOLES AS INHIBITORS OF NAV1.8” (Grünenthal GmbH, priority 2022, dated 2024).
